For data set [1], the target named is FMC63 scFv. Put plainly: Yeast clone binding to biotinylated FMC63 scFv monomer, Kd by FACS. Also on record: species or system murine. The conditions noted are these: yeast clones. Here is the method:
Identifying specific mimotope clones of varying affinities will provide flexibility in treatments. In order to validate specific sequences, clones were isolated and measured for their affinity to FMC63. Specifically, a subset of mimotope clones were selected from the fixed library sequence described in Example 5. […] Given the FDA-approved CAR is an scFV derived from the parental IgG, mimotope binding to FMC63-scFv monomer was tested using biotinylated FMC63 scFV to measure Kd by FACS (FIG. 10B). […] This screen positively identified mimotope clones with varying affinities to FMC63 which may be used for a tailored vaccine approach.

Data set [2] can be described thus: Micelle stability of lipid-oligonucleotide conjugates in the presence of serum (FBS). Format: physicochemical. The note with it: for micelle stability on increasing number of guanines: in the presence of serum. From the text:
In certain embodiments, the linker is one or more guanines, for example between 1-10 guanines. It has been discovered that altering the number of guanines between a cargo such as a CpG oligonucleotide, and a lipid tail controls micelle stability in the presence of serum proteins. Therefore, the number of guanines in the linker can be selected based on the desired affinity of the conjugate for serum proteins such as albumin. When the cargo is a CpG immunostimulatory oligonucleotide and the lipid tail is a diacyl lipid, the number of guanines affects the ability of micelles formed in aqueous solution to dissociate in the presence of serum: 20% of the non-stabilized micelles (lipo-G0T10-CG) (SEQ ID NO: 138) were intact, while the remaining 80% were disrupted and bonded with FBS components.

The target in data set [3] is FMC63 IgG. Put plainly: ELISA of N-terminally biotinylated F12 variants on streptavidin plate, binding to FMC63 IgG. Also on record: species or system murine. The conditions noted are these: biotinylated peptides, read-out: Kd (nM), FMC63 binding affinity of F12 variants with N-terminal flanking residues. (ELISA stands for enzyme-linked immunosorbent assay.)
Description: It was further evaluated if addition of flanking residues to the terminus of a FMC63-binding mimotope would increase its binding affinity to FMC63, e.g., by increasing the mimotope surface area available for engaging in protein-protein interactions with FMC63. […] Additional Ser-Gly residues (between 3 and 15 additional residues) were included to further extend the N-terminal flanking region.
Data set [4] has as its system FMC63 anti-hCD19 CAR-T cells. In words: IFNγ secretion of FMC63 CAR-T cells co-cultured with amph-mimotope coated K562 cells (ELISA). Format: cell-based. The note with it: K562 cells coated with 10 μM amph-mimotope; E:T 10:1; 24 hours; compared to amphiphile only control. Here is the method:
To determine the effect of the CD19 amph-mimotope on chimeric antigen receptor (CAR) T cells, in vitro stimulation of CAR-T cells was assessed after co-culture with antigen presenting cells (APCs) providing the amph-mimotope (FIG. 8A). Specifically, K562 cells were pelleted at 1,000×g for 3 minutes and washed with PBS twice to remove residual protein. The cell pellet was then resuspended at 1×10^6 cells/mL in PBS containing amph-mimotope ([…]; SEQ ID NO: 5) at 10 μM and incubated at 37° C. for 30 minutes. The labeling reaction was stopped by pelleting cells and washing with PBS. To mimic antigen presenting cells in lymph nodes, K562 cells were decorated with amph-mimotope, and then co-cultured at an effector to target (E:T) ratio of 10:1 with FMC63 expressing CAR-T cells (hCD19-CAR; SEQ ID NO: 78) for 24 hours. […]

Data set [5] has as its system FMC63 scFv. Put plainly: Dissociation kinetics of FMC63 scFv from yeast clones, flow cytometry. Format: binding, murine. The note with it: yeast clones labeled with FMC63 scFv, washed, incubated 0-72 hours. As for the experimental part:
The dissociation kinetics following binding of the mimotopes to FMC63 were also investigated. Briefly, yeast clone expressing F12 (SEQ ID NO: 18) or K-A1 (SEQ ID NO: 100) were incubated with labeled FMC63 scFv. The yeast were then washed, and incubated for 0-72 hours prior to analysis of the degree of FMC63 scFv labeling by flow cytometry. […] However, the yeast clone expressing K-A1 retained FMC63 even up to 72 hours, indicating slower dissociation kinetics compared to F12.

For data set [6], the system named is FMC63 IgG. In words: Mimotope binding to FMC63 after DTT treatment of yeast, flow cytometry. Details: species or system murine. The conditions noted are these: DTT 0.01-10 mM, 30 minutes, room temperature. As for the experimental part: To determine the formation of an intra-peptidyl disulfide bridge formed by the two Cys residues, mimotope expressing yeast were treated in reducing conditions and binding of the mimotope to FMC63 IgG was measured. […] Similarly, control cells expressing Aga2p (connected to the yeast surface by disulfide bridge) were treated with DTT. Following treatment, cells were labelled with biotinylated Aga2p or FMC63 and binding was measured by flow cytometry. At mild reducing conditions, Aga2p was maintained on the yeast surface while mimotope binding to FMC63 was abolished (FIG. 6). The inhibition of mimotope binding to FMC63 following treatment with a reducing agent reaffirms the formation of the disulfide bond and its importance for binding.
Target sequence in this assay (as listed by the source): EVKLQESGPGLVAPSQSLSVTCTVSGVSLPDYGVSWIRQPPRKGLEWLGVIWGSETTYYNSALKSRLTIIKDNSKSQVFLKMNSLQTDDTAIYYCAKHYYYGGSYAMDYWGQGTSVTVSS
Target sequence in this assay (as listed by the source): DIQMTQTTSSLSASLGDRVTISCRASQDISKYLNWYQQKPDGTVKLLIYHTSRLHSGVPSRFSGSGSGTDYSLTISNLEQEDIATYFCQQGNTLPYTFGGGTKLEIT
(In general: In flow cytometry, cells or beads pass a laser one at a time.)

The next data set concerns FMC63 CAR T cells. In words: In vivo proliferation of FMC63 CAR T cells in inguinal lymph nodes (cell trace violet dilution). The conditions noted are these: mice, s.c. tail base, 10 ug monovalent or 20 ug bivalent + 25 μg cyclic-di-GMP; inguinal LNs 48 hours post-vaccination. As for the experimental part: CD45.1^+ donor FMC63 CAR T cells were prepared as described in Example 3 and labeled with cell trace violet according to manufacturer's protocol. 2×10^6 CAR T cells were administered into CD45.2^+ recipient mice via tail vein injection on Day 0. The following day, recipient mice were vaccinated by subcutaneous injection at the tail base with the following vaccine formulation: […]
(i) 10 ug of monovalent amph-mimotope (Amph-K-A1 or Amph-K-C2)+25 μg of cyclic-di-GMP in 1×PBS; or
(ii) 20 ug of amph-Bi-F12-mimotope (PEG4 or PEG8)+25 μg of cyclic-di-GMP in 1×PBS.
The volume of the formulation was 100 μL total, and the mice were administered 50 μL per each site of the tail base. Control mice received no vaccination. At 48 hours post-vaccination, recipient mice were euthanized and inguinal LNs were isolated for FACS analysis of CAR T proliferation.

Where a SMILES comes first, the peptide text is derived from it. Bridges are numbered along the chain shown (N, C = ends). Where no end group is shown, it is not given here. The star is where a group is joined. Biotin = O=C1N[C@H]2[C@H](CS[C@H]2CCCCC(=O)*)N1 Where only a bound is given, the exact number is not on record here.

FMC63 scFv, sequence (as listed by the source): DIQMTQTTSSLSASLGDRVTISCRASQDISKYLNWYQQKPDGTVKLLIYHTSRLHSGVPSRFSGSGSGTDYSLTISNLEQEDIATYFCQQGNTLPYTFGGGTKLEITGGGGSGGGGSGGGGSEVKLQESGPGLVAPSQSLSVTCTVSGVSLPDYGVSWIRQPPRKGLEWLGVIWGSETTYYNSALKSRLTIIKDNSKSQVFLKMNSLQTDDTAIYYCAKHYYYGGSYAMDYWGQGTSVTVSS

Turning to RICPWSCMVV [Clone B7], the Kd (usually the concentration at which binding is half-saturated) on FMC63 scFv [1] was over 1000 nM.

On to “lipo-G0T10-CG: diacyl lipid tail, G0T10 linker, CpG immunostimulatory oligonucleotide; non-stabilized micelles (DNA TTTTTTTTTTCG; diacyl lipid tail conjugated, backbone chemistry not given here)”, for which, in data set [2] (in the presence of serum (FBS)), the “percentage of micelles disrupted and bonded with FBS components” value is listed as 80%.

Turning to `CC[C@H](C)[C@H](NC(=O)[C@H](CCCNC(=N)N)NC(=O)[C@H](CO)NC(=O)[C@H](C)NC(=O)[C@H](CO)NC(=O)CNC(=O)CNC(=O)CNC(=O)CNC(=O)[C@H](CO)NC(=O)CNC(=O)CNC(=O)CCCC[C@@H]1SC[C@@H]2NC(=O)N[C@@H]21)C(=O)N[C@H]1CSSC[C@@H](C(=O)N[C@@H](CCCCN)C(=O)N[C@@H](CCC(=O)O)C(=O)N[C@@H](CC(C)C)C(=O)O)NC(=O)[C@H](CC(N)=O)NC(=O)[C@H](Cc2c[nH]c3ccccc23)NC(=O)[C@@H]2CCCN2C1=O` [SEQ ID NO: 97] (Biotin-GGSGGGGSASRICPWNCKEL-OH; disulfide 13-17), on FMC63 IgG [3], the Kd came out at 0.139 nM.

With “amph-mimotope: DSPE-PEG2000 conjugated onto the N-terminus of synthesized cyclic mimotope RHCPWNCSLL (SEQ ID NO: 5) (disulfide 3-7 (inferred); not fully specified (N-terminus))”, the “activation of CAR-T cells measured by IFNγ secretion” value in data set [4] is given as “significantly activated”.

As to RICPWNCKEL [Clone F12], the “time of retention of FMC63 scFv labeling after wash” value with FMC63 scFv [5] is at most 0.5 h.

Regarding RHCPWNCSLL [Clone A1], the “mimotope binding to FMC63 after DTT treatment” value in the data set with FMC63 IgG [6] was “abolished”.

“Amph-K-C2: monovalent amph-mimotope: mimotope SEQ ID NO: 129 conjugated to DSPE-PEG2k (GGGSASRICPWNCKELPSPPRIFGNR; not fully specified; DSPE-PEG2k conjugate; Synthetic: Mimotope of Amph-K-C2)”: in the data set on FMC63 CAR T cells, the “proliferation of CAR T cells in vivo measured by cell violet dilution” value is reported as “observed”.

On to `CC[C@H](C)[C@H](NC(=O)[C@H](CCCNC(=N)N)NC(=O)[C@H](CO)NC(=O)[C@H](C)NC(=O)[C@H](CO)NC(=O)CNC(=O)CNC(=O)CNC(=O)CNC(=O)[C@H](CO)NC(=O)CNC(=O)CNC(=O)CNC(=O)CNC(=O)[C@H](CO)NC(=O)CNC(=O)CCCC[C@@H]1SC[C@@H]2NC(=O)N[C@@H]21)C(=O)N[C@H]1CSSC[C@@H](C(=O)N[C@@H](CCCCN)C(=O)N[C@@H](CCC(=O)O)C(=O)N[C@@H](CC(C)C)C(=O)O)NC(=O)[C@H](CC(N)=O)NC(=O)[C@H](Cc2c[nH]c3ccccc23)NC(=O)[C@@H]2CCCN2C1=O` [SEQ ID NO: 98] (Biotin-GSGGGGSGGGGSASRICPWNCKEL-OH; disulfide 17-21), for which, at FMC63 IgG [3], the Kd stood at 0.134 nM.

For the compound `CC[C@H](C)[C@H](NC(=O)[C@H](CCCNC(=N)N)NC(=O)[C@H](CO)NC(=O)[C@H](C)NC(=O)[C@H](CO)NC(=O)CNC(=O)CNC(=O)CNC(=O)CNC(=O)[C@H](CO)NC(=O)CNC(=O)CNC(=O)CNC(=O)CNC(=O)[C@H](CO)NC(=O)CNC(=O)CNC(=O)CNC(=O)CNC(=O)CCCC[C@@H]1SC[C@@H]2NC(=O)N[C@@H]21)C(=O)N[C@H]1CSSC[C@@H](C(=O)N[C@@H](CCCCN)C(=O)N[C@@H](CCC(=O)O)C(=O)N[C@@H](CC(C)C)C(=O)O)NC(=O)[C@H](CC(N)=O)NC(=O)[C@H](Cc2c[nH]c3ccccc23)NC(=O)[C@@H]2CCCN2C1=O` [SEQ ID NO: 99] (Biotin-GGGGSGGGGSGGGGSASRICPWNCKEL-OH; disulfide 20-24), the Kd on FMC63 IgG [3] is 0.153 nM.

At FMC63 scFv [1], RMCPWSCRPH [Clone A8] registered a Kd of over 1000 nM.

On to “lipo-G8T2-CG: diacyl lipid tail, G8T2 linker, CpG immunostimulatory oligonucleotide (DNA GGGGGGGGTTCG; diacyl lipid tail conjugated, backbone chemistry not given here)”, for which the “micelle stability on increasing number of guanines” value in data set [2] is recorded as “did not further enhance micelle stability”.

Regarding PRKHSGRICPWNCKELDNPPFIFGNR [K-A1], the “time of retention of FMC63 scFv labeling after wash” value in the data set on FMC63 scFv [5] is at least 72 h.

With “lipo-G10T0-CG: diacyl lipid tail, G10T0 linker, CpG immunostimulatory oligonucleotide (DNA GGGGGGGGGGCG; diacyl lipid tail conjugated, backbone chemistry not given here)”, in data set [2], the “micelle stability on increasing number of guanines” value is reported as “did not further enhance micelle stability”.

The values are drawn from patent US20210340524A1, “METHODS FOR IDENTIFYING CHIMERIC ANTIGEN RECEPTOR-TARGETING LIGANDS AND USES THEREOF” (Massachusetts Institute of Technology, priority 2020, published 2021).
